Source: EP4293019A1, “4-SUBSTITUTED (1H-BENZO[D]IMIDAZOL-2-YL)-1H-PYRAZOLES AS BUB1 INHIBITORS USEFUL FOR TREATING CANCERS” (Netherlands Translational Research Center Holding B.V., priority 2022, dated 2023)

Experiments:
[1] = biological target: T1, hBUB1 (Homo sapiens, UniProt O43683); experiment: hBUB1 kinase activity assay (biochemical fluorescence polarization assay, IMAP); details: BUB1/BUB3 3.26 nM, ATP 15 µM, BUB1/BUB3 substrate 75 nM; N=2, n=2; read-out: hBUB1 pIC50 (converted)
T1 construct: purchased Carna Biosciences 05-187
T1 sequence (O43683 whole entry): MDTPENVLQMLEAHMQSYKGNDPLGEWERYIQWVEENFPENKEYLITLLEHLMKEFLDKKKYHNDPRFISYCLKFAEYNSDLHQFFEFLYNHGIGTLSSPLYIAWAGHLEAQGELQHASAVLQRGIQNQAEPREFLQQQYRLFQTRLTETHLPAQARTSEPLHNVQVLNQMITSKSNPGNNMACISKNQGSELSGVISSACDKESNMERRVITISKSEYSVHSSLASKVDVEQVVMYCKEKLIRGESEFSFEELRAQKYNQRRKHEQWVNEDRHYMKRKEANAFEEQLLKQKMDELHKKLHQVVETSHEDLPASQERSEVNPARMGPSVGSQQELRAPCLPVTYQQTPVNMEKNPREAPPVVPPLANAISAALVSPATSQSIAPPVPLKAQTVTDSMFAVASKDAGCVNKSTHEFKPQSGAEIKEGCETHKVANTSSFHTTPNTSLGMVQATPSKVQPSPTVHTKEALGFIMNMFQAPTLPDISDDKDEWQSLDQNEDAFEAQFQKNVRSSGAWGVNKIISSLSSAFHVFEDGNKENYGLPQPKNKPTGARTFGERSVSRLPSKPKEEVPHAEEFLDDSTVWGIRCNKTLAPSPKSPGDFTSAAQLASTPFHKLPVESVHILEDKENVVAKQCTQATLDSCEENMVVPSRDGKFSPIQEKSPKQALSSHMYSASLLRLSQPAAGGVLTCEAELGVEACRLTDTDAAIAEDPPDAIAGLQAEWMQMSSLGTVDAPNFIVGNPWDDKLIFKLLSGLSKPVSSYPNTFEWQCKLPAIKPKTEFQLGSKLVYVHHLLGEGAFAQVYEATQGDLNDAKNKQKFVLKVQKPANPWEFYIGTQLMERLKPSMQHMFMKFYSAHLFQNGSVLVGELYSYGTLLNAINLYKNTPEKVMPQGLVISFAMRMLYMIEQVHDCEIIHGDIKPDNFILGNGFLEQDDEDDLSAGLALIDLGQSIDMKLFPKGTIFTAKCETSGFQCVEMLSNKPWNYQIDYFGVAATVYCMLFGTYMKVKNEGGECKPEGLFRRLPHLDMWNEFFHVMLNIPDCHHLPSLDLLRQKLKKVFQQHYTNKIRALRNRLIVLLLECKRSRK
T1 sequence (O43684 whole entry partner): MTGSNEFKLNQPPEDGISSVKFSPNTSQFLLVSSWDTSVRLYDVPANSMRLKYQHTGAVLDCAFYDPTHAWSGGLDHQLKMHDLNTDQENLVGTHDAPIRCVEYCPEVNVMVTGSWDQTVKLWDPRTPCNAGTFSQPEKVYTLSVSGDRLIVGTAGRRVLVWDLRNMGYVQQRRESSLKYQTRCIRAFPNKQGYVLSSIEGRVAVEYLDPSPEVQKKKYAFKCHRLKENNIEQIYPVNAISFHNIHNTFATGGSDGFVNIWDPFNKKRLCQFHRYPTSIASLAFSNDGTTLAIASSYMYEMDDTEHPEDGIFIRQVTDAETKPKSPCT
Procedure: This protocol describes how the Kinase Activity Assay was performed to determine pIC50 values of compounds of general formula (I) against hBUB1.
Assays were performed in 384-well plates (Greiner, black, flat bottom, 781076) by sequential addition (final concentrations are indicated) of inhibitor (5 µL, 0.3 nM - 1 µM or 3 nM - 10 µM), BUB1/BUB3 (5 µL, 3.26 nM, Carna Biosciences (05-187), lot: 15CBS-0644 D), ATP (5 µL, 15 µM) and BUB1/BUB3 substrate (5 µL, 75 nM, Carna Biosciences (05-187MSSU)), all as 4x working solutions. The final concentration of DMSO was 1%. Assay reactions were stopped by addition of IMAP progressive binding reagent (20 µL, 1200x diluted, Molecular Devices (R8155), lot: 3117896). Each assay included the following controls: (i) a background control (treated with vehicle instead of inhibitor and BUB1/BUB3 substrate), (ii) MIN controls (treated with 5 µM BAY1816032 (MedChem Express) as inhibitor, used as 0% BUB1 activity) and (iii) MAX controls (treated with vehicle instead of inhibitor, used as 100% BUB1 activity). All inhibitors were tested in two separate assays and all inhibitor concentrations were tested in duplicate per assay (N=2, n=2).
For each assay, assay buffer (AB) was freshly prepared and consisted of 20 mM HEPES (prepared by diluting 1 M HEPES, pH 7.2), 5 mM MgCl2, 0.01% Tween-20 and 1 mM DTT. Stocks of inhibitors (in DMSO) were diluted in AB to obtain 4x working solutions (4% DMSO) and 5 µL was added to the assay plate. BUB1/BUB3 (3.26 µM (486 µg/mL) in storage buffer) was diluted in AB to obtain 13.0 nM of which 5 µL was added to all wells of the assay plate. The assay plate was centrifuged (1 min, 200 g) and incubated at RT for 30 min. ATP (4 mM in MilliQ) was diluted in AB to obtain 60 µM of which 5 µL was added to each well. BUB1/BUB3 substrate (1 mM) was diluted in 20 mM HEPES (prepared by diluting 1 M HEPES (pH 7.2) in MilliQ) to obtain 80 µM (this solution was freshly prepared every assay) and further diluted in AB to obtain 300 nM after which 5 µL was added to each well of the assay plate except for background control wells. The assay plate was centrifuged (1 min, 200 g) and incubated at RT in the dark for 180 min. IMAP progressive binding buffer A (5x) and IMAP progressive binding buffer B (5x) were mixed in a ratio to obtain 30% buffer A and 70% buffer B, which was subsequently diluted 5x in MilliQ. IMAP progressive binding reagent was diluted 600x in aforementioned mixture of buffer A and B (to obtain a 2x working solution) of which 20 µL was added to each well of the assay plate. The assay plate was centrifuged (1 min, 200 g) and incubated at RT in the dark for 90 min. Fluorescence polarization was measured on a CLARIOstar plate reader using the following settings: (i) optic settings → excitation = F: 482-16, dichroic = F: LP 504, emission = F: 530-40, (ii) optic = top optic, (iii) speed/precision = maximum precision, (iv) focus adjustment was performed for every assay and (v) gain adjustment was done by setting the target mP value to 35 mP for one of the MIN control wells. Data was normalized between MIN and MAX controls and data was plotted using GraphPad Prism 8.0 using "Nonlinear regression (curve fit)" and "log(inhibitor) vs. normalized response - Variable slope" to determine pIC50 values.
Inhibition is indicated as pIC50 ("-" = not measured). Compounds having an activity designated as "A" provided an pIC50 ≥ 7.0 (IC50 ≤100 nM); compounds having an activity designated as "B" provided an 6.3 ≤ pIC50 < 7.0 (100 nM<IC50 ≤ 500 nM); compounds having an activity designated as "C" provided an 6.0 ≤ pIC50 < 6.3 (500 nM < IC50 ≤ 1 µM); compounds having an activity designated as "D" provided an 6.0 < pIC50 ≤ 5.0 (1 µM < IC50 ≤ 10 µM); and compounds having an activity designated as "E" provided an pIC50 < 5.0 (IC50 >10 µM).

[2] = test system: U2OS cells; experiment: Cellular proliferation assay (SRB proliferation assay); type: cell-based; details: Homo sapiens, 72 h treatment, SRB staining, N=2, n=3
Procedure: This protocol describes how the Cellular Proliferation Assay was performed to determine pIC50 values of compounds of general formula (I) against U2OS cells.
U2OS (human osteosarcoma) cells were purchased at ATCC and were tested on regular basis for mycoplasma contamination. Cultures were discarded after 2-3 months of use. Cells were cultured at 37°C under 7% CO2 in DMEM (Sigma Aldrich, D6546) supplemented with GlutaMAX (2 mM, ThermoFisher), 10% (v/v) heat-inactivated newborn calf serum (Seradigm), penicillin and streptomycin (200 µg/mL each, Duchefa) (complete medium). Medium was refreshed every 2-3 days and cells were passaged by trypsinization twice a week at 80-90% confluence. Cell viability was assessed by Trypan Blue exclusion and cell quantification using a TC20™ Automated Cell Counter (Bio-Rad).
Assays were performed in 96-well plates (Greiner, Cellstar, 655180) by seeding (day 0), treatment (day 1) and subsequent incubation for 72 h. Cells were fixed, stained and staining was subsequently dissolved after which absorbance was measured. Each assay included the following controls: (i) a background control (to which no cells were added), (ii) t0 controls (separate assay plate in which cells were fixed on day 1, used as 0% proliferation), (iii) nontreated controls (present in each assay plate, treated with vehicle and used as 100% proliferation). Cells were treated with different concentrations of indicated inhibitor. All inhibitors were tested in two separate assays and all inhibitor concentrations were tested in triplicate per assay (N=2, n=3).
For each assay, U2OS cells from 10 cm dishes were seeded into 96-well plates (3,000 cells/well) and subsequently incubated overnight to allow for cell adherence. Stocks of inhibitor and vehicle (all in DMSO) were diluted in complete medium to obtain 2x working solutions (1% DMSO). Cell medium was replaced by fresh complete medium (50 µL), treatment was started by addition of the 2x working solutions (50 µL) and plates were incubated at 37°C for 72 h. Cell medium was replaced by fresh serum free medium (100 µL) and cells were fixed by addition of 30 µL 50% (w/v) aq. trichloroacetic acid after which the plates were incubated at 4°C for 60 min. Wells were emptied by shaking the plates upside down after which wells were washed three times with demineralized water and air-dried overnight. To each well, 60 µL of SRB solution (0.4% (w/v) in 1% aq. acetic acid) was added and plates were incubated for 30 min. The excess SRB was removed and the wells were washed three times with 1% aq. acetic acid and air-dried overnight. Bound SRB was redissolved by addition of 150 µL 10 mM TRIS (free-base) and absorbance was measured at 540 nm on a CLARIOstar plate reader. Data was normalized between t0 and nontreated controls and plotted using GraphPad Prism 8.0 using "Nonlinear regression (curve fit)" and "log(inhibitor) vs. normalized response - Variable slope" to determine pIC50 values.
Inhibition is indicated as pIC50 ("-" = not measured). Compounds having an activity designated as "A" provided an pIC50 ≥ 6.0 (IC50 ≤1 µM); compounds having an activity designated as "B" provided an 5.3 ≤ pIC50 < 6.0 (1 µM<IC50 ≤ 5 µM); compounds having an activity designated as "C" provided an 5.0 ≤ pIC50 < 5.3 (5 µM < IC50 ≤ 10 µM); compounds having an activity designated as "D" provided an 5.0 < pIC50 ≤ 4.7 (10 µM < IC50 ≤ 20 µM); and compounds having an activity designated as "E" provided an pIC50 < 4.7 (IC50 >20 µM).

IC50 [1]	IC50 [2]	SMILES
100 to 501 nM	1000 to 5010 nM	c1ccc(-c2nccc(Nc3c[nH]nc3-c3nc4cc(CN5CCOCC5)ccc4[nH]3)n2)cc1 [Compound 16, N-(3-(5-(morpholinomethyl)-1H-benzo[d]imidazol-2-yl)-1H-pyrazol-4-yl)-2-phenylpyrimidin-4-amine]
100 to 501 nM	5010 to 10000 nM	c1ccc(Oc2nccc(Nc3c[nH]nc3-c3nc4cc(CN5CCOCC5)ccc4[nH]3)n2)cc1 [Compound 17, N-(3-(5-(morpholinomethyl)-1H-benzo[d]imidazol-2-yl)-1H-pyrazol-4-yl)-2-phenoxypyrimidin-4-amine]
100 to 501 nM	1000 to 5010 nM	c1ccc(COc2nccc(Nc3c[nH]nc3-c3nc4cc(CN5CCOCC5)ccc4[nH]3)n2)cc1 [Compound 18, 2-(benzyloxy)-N-(3-(5-(morpholinomethyl)-1H-benzo[d]imidazol-2-yl)-1H-pyrazol-4-yl)pyrimidin-4-amine]
≤ 100 nM	1000 to 5010 nM	Clc1cccc(-c2nccc(Nc3c[nH]nc3-c3nc4cc(CN5CCOCC5)ccc4[nH]3)n2)c1 [Compound 41, 2-(3-Chlorophenyl)-N-(3-(5-(morpholinomethyl)-1H-benzo[d]imidazol-2-yl)-1H-pyrazol-4-yl)pyrimidin-4-amine]
≤ 100 nM	1000 to 5010 nM	C#Cc1cccc(-c2nccc(Nc3c[nH]nc3-c3nc4cc(CN5CCOCC5)ccc4[nH]3)n2)c1 [Compound 42, 2-(3-Ethynylphenyl)-N-(3-(5-(morpholinomethyl)-1H-benzo[d]imidazol-2-yl)-1H-pyrazol-4-yl)pyrimidin-4-amine]
501 to 1000 nM	1000 to 5010 nM	FC(F)(F)c1cccc(-c2nccc(Nc3c[nH]nc3-c3nc4cc(CN5CCOCC5)ccc4[nH]3)n2)c1 [Compound 43, N-(3-(5-(Morpholinomethyl)-1H-benzo[d]imidazol-2-yl)-1H-pyrazol-4-yl)-2-(3-(trifluoromethyl)phenyl)pyrimidin-4-amine]
501 to 1000 nM	1000 to 5010 nM	N#Cc1cccc(-c2nccc(Nc3c[nH]nc3-c3nc4cc(CN5CCOCC5)ccc4[nH]3)n2)c1 [Compound 44, 3-(4-((3-(5-(Morpholinomethyl)-1H-benzo[d]imidazol-2-yl)-1H-pyrazol-4-yl)amino)pyrimidin-2-yl)benzonitrile]
≤ 100 nM	1000 to 5010 nM	Fc1c(Cl)cccc1-c1nccc(Nc2c[nH]nc2-c2nc3cc(CN4CCOCC4)ccc3[nH]2)n1 [Compound 45, 2-(3-Chloro-2-fluorophenyl)-N-(3-(5-(morpholinomethyl)-1H-benzo[d]imidazol-2-yl)-1H-pyrazol-4-yl)pyrimidin-4-amine]
≤ 100 nM	≤ 1000 nM	C#Cc1cccc(-c2nccc(Nc3c[nH]nc3-c3nc4cc(CN5CCOCC5)ccc4[nH]3)n2)c1F [Compound 46, 2-(3-Ethynyl-2-fluorophenyl)-N-(3-(5-(morpholinomethyl)-1H-benzo[d]imidazol-2-yl)-1H-pyrazol-4-yl)pyrimidin-4-amine]
≤ 100 nM	1000 to 5010 nM	Fc1ccc(Cl)cc1-c1nccc(Nc2c[nH]nc2-c2nc3cc(CN4CCOCC4)ccc3[nH]2)n1 [Compound 47, 2-(5-Chloro-2-fluorophenyl)-N-(3-(5-(morpholinomethyl)-1H-benzo[d]imidazol-2-yl)-1H-pyrazol-4-yl)pyrimidin-4-amine]
≤ 100 nM	≤ 1000 nM	COc1cnc(-c2cccc(Cl)c2)nc1Nc1c[nH]nc1-c1nc2cc(CN3CCOCC3)ccc2[nH]1 [Compound 51, 2-(3-Chlorophenyl)-5-methoxy-N-(3-(5-(morpholinomethyl)-1H-benzo[d]imidazol-2-yl)-1H-pyrazol-4-yl)pyrimidin-4-amine]
≤ 100 nM	≤ 1000 nM	C#Cc1cccc(-c2ncc(OC)c(Nc3c[nH]nc3-c3nc4cc(CN5CCOCC5)ccc4[nH]3)n2)c1 [Compound 52, 2-(3-Ethynylphenyl)-5-methoxy-N-(3-(5-(morpholinomethyl)-1H-benzo[d]imidazol-2-yl)-1H-pyrazol-4-yl)pyrimidin-4-amine]
100 to 501 nM	≤ 1000 nM	COc1cnc(-c2cccc(C(F)(F)F)c2)nc1Nc1c[nH]nc1-c1nc2cc(CN3CCOCC3)ccc2[nH]1 [Compound 53, 5-Methoxy-N-(3-(5-(morpholinomethyl)-1H-benzo[d]imidazol-2-yl)-1H-pyrazol-4-yl)-2-(3-(trifluoromethyl)phenyl)pyrimidin-4-amine]
≤ 100 nM	10000 to 20000 nM	COc1cnc(-c2cccc(C#N)c2)nc1Nc1c[nH]nc1-c1nc2cc(CN3CCOCC3)ccc2[nH]1 [Compound 54, 3-(5-Methoxy-4-((3-(5-(morpholinomethyl)-1H-benzo[d]imidazol-2-yl)-1H-pyrazol-4-yl)amino)pyrimidin-2-yl)benzonitrile]
